Results: patent US20250026747A1, “COLIBACTIN DERIVATIVES AND METHODS OF TREATING, AMELIORATING, AND/OR PREVENTING CANCER” (priority 2021, published 2025)

Columns and labels:
Assay type in all cases: cell-based, human
HeLa cells [1] = assay: Cell viability assay (CellTiter-GLO) in HeLa cells; conditions: 72 h, 24 nM to 100 μM
Experimental: (§1) FIGS. 12A-12E show the results of the Cell viability assays. Specifically, HeLa cells were incubated with: (FIG. 12A) compound 9; (FIG. 12B) colibactin 742 (4); (FIG. 12C) compound 22; (FIG. 12D) compound 23; or (FIG. 12E) compound 24 at 24 nM-100 μM for 72 h, according some embodiments. The cells were then incubated with CTG reagent and the luminescence was measured. Results were normalized to DMSO control (0.1%, 0% effect) tamoxifen (60 μM, 100% effect). The points are the averages of twelve measurements (triplicates of four). The lines are four parameters logistic regression (4PL) fit. Error bars represent 95% confidence ranges.
(§2) Experiments to determine if the cyclized and linear forms (colibactin 742 (4) and 9, respectively) are cytotoxic were conducted. As discussed above, the timing of the cyclization events that form the colibactin warheads is not known. To probe this, the instant study measured the cytotoxicity of both the linear precursor 9 and colibactin 742 (4) toward human cervical cancer cells (HeLa). The compounds were incubated for 72 h at concentrations ranging from 24 nM to 100 μM. Cell viability was measured using CellTiter GLO assay and normalized to tamoxifen (60 μM, set at 100% effect) and methyl sulfoxide (DMSO, set at 0% effect). […] Additionally, this observation further supports the notion that while the C36-C37 1,2-diketone may dictate colibactin's half-life within the gut, it may not play a critical role in DNA damage.
(§3) Hela cells were grown in Dulbecco's Modified Eagle Medium (DMEM) supplemented with fetal bovine serum (FBS, 10%) and penicillin-streptomycin (0.1%) at 37° C. in a 95% humidity atmosphere under 5% CO2 environment. Cytotoxicity was determined using a CellTiter-GLO Assay. Cells were seeded at a density of 400 cells to achieve total well volumes of 20 μL in 384-well plates (black with an optically clear bottom, Greiner Bio One 781091) using a Thermo Combidrop liquid dispenser and grown for […] at 37° C., 5% CO2. Cells were grown for 24 h, followed by the addition of test compounds using an Echo acoustic liquid handler (Labcyte). For each tested drug concentration, a 20 nL aliquot of the 1000× stock was added to 20 μL of cells to provide a final DMSO concentration of 0.1%. The compounds were incubated for 72 h at concentrations ranging from 24 nM to 100 μM. Each plate contained negative vehicle control wells (0.1% DMSO) and positive control wells (60 μM tamoxifen). After 72 h, the cells were treated with 10 μL CTG reagent. […] The resulting luminescence was measured using a plate reader (Infinite M1000, TECAN Group AG). Biological triplicates, each measured four times (N=12), for each compound were recorded for each concentration and IC50 values were determined using Prism 9 (Graph Pad) fit with a four parameters nonlinear regression.

FANCD2 = assay: Immunofluorescence assay of FANCD2 foci in HeLa cells; conditions: 4 h treatment, 20 h further culture; for FANCD2 foci formation: 1-100 μM
Experimental: (§4) FIGS. 7A-7B evaluates the Colibactin 742 (4) and its linear precursor 9 recapitulate the clb phenotype. […] HeLa cells were treated with the linear precursor 9 (1-100 μM), colibactin 742 (4) (1-100 μM) or MMC (150 nM) for 4 h. The cells were then washed and incubated for 20 h before immunofluorescence imaging. Cells were considered positive when >5 FANCD2 or γH2AX foci formed. Means and standard deviations of results from at least three independent experiments are shown. FIG. 7B depicts the DNA content histograms upon treatment with colibactin 742 (4, 11 μM) or 9 (11 μM) quantification of the sub-population of the histograms.
The present study then probed the DNA damage response that was activated following exposure to colibactin 742 (4) or its linear precursor 9. In mammalian cells, DNA interstrand cross-links (ICLs) are repaired by the Fanconi anemia pathway, and activation of this pathway is observed when eukaryotic cells are infected with clb^+ bacteria. Upon detection of an ICL, the Fanconi anemia protein D2 (FANCD2) is activated by monoubiquitinylation and recruited to the ICL to coordinate repair. Following initiation of repair, a double-strand break (DSB) is generated, which in turns triggers the formation of phospho-SER139-H2AX (γH2AX) nuclear foci. […] Consequently, the instant study probed for activation of FANCD2 and γH2AX by immunofluorescence imaging in cells treated with 4 or 9. Using conditions that closely mimic the bacterial coinfection experiments, the instant study treated HeLa cells with colibactin 742 (4) (1-100 μM), the linear precursor 9 (1-100 μM), or MMC (150 nM, higher concentrations of MMC reduced cell viability) for 4 h. The cells were then washed and cultured for a further 20 h. […] Thus, the synthetic compounds 4 and 9 induce a similar activation of the eukaryotic DNA damage response as clb^+ E. coli.
Cells were seeded at a density of 3500 cells per well to achieve total well volumes of 20 μL in 384-well plates (black with an optically clear bottom, Greiner Bio One 781091) using a Thermo Combidrop liquid dispenser. Cells were grown for 24 h, followed by the addition of test compounds using an Echo acoustic liquid handler (Labcyte). For each tested drug concentration, a 20 nL aliquot of the 1000× stock was added to 20 μL of cells to provide a final DMSO concentration of 0.1%. The compounds were incubated for 4 h at concentrations ranging from 1.2 μM to 100 μM in growth medium, at 37° C., 5% CO2. Each plate contained negative vehicle control wells (0.1% DMSO) and positive control wells (0.15 μM Mitomycin C, MMC). After 4 h incubation, the cells were washed once with Dulbecco's Phosphate-buffered solution (DPBS, Life Technologies), then fresh growth medium was added. The cells were incubated for 20 h, fixed, and subjected to immunofluorescence imaging.
Cells were fixed with 4% paraformaldehyde (PFA) (Electron Microscopy Sciences) in the presence of 0.02% Triton X-100 at room temperature (RT) for 20 min and then incubated in permeabilization/blocking solution [10% FBS and 0.5% Triton X-100 in phosphate-buffered saline (PBS)] at RT for 1 h. Primary antibodies were diluted 1:500 in permeabilization/blocking solution and used to stain cells at 4° C. overnight. […] Cells were imaged using the InCell 2200 Imaging System (GE Corp.) and analyzed using InCell Analyzer software (GE Corp.) to quantify the number of γH2AX and FANCD2 foci. Cells were counted as positive for focus formation when 5 foci/nucleus were detected.

[2] = Cell viability assay (CellTiter-GLO) in HeLa cells; conditions: human, 72 h, 24 nM to 100 μM, normalized to tamoxifen 60 μM and DMSO, read-out: half-maximal inhibitory potency (IC50), cytotoxicity
Experimental: as §1, §2, §3

HeLa cells [3] = assay: Cell cycle analysis (DNA content histograms) in HeLa cells; conditions: >11 μM
Experimental: as §4
DNA content histograms and quantification of the sub-population of the histograms.
It has also been reported that clb^+ bacteria induce cell cycle arrest at the G2/M phase and eventual mitotic catastrophe.

SMILES	cytotoxicity (HeLa cells [1])	FANCD2 foci formation (FANCD2)	IC50 [2]	number of positive cells for FANCD2 foci (FANCD2; 11 μM, positive when >5 foci)	cell death and decrease in positive cells at higher concentrations (FANCD2; higher concentrations (>33 μM))	cell cycle arrest at G2/M (HeLa cells [3])	number of positive cells for FANCD2 foci (with respect to DMSO) (FANCD2; 33 μM)
C[C@H]1CCC(C2=C(CC(=O)NCC(=O)c3csc(CCc4csc(CNC(=O)CC5=C(C6=N[C@@H](C)CC6)C(=O)NC5(C)C)n4)n3)C(C)(C)NC2=O)=N1 [compound 22]	showed no toxicity	did not induce					
C[C@H]1CCC(CC(=O)NC2(C(=O)CC(=O)NCC(=O)c3csc(CCc4csc(CNC(=O)CC(=O)C5(NC(=O)CC6=N[C@@H](C)CC6)CC5)n4)n3)CC2)=N1 [compound 9]			7.2 ± 1.7 µM	four-fold increase	induced cell death	accumulation of cells in G2	
CCOC(=O)c1csc(CNC(=O)CC2=C(C3=N[C@@H](C)CC3)C(=O)NC23CC3)n1 [compound 23, reference compound]			8.4 ± 2.4 µM				three-fold increase
CCOC(=O)c1nc(C2(O)CNC(=O)C2C2=C(C3=N[C@@H](C)CC3)C(=O)NC23CC3)cs1 (stereo partly shown) [compound 24]	showed no toxicity	did not induce					
